Test results as given in US20250066338A1, “CERTAIN 3-AZABICYCLO[3.1.0]HEXANES AS GLP-1 RECEPTOR MODULATORS” (AstraZeneca AB, priority 2021, published 2025).

Tests used:
human GLP-1R receptor = human GLP-1R receptor (Homo sapiens (Human), UniProt P43220, L260F); test: CHOK1 GLP-1R cAMP Assay; assay type: cell-based; settings: CHO-K1 cell line stably expressing human GLP-1R; HTRF cAMP; agonist activity
Procedure: A cell line stably expressing the human GLP-1R receptor (NM 002062.5, including the naturally-occurring variant Leu260Phe) in a CHO-K1 (ATCC® CCL-61™) was used for assay.
GLP-1 receptor mediated agonist activity was determined in a cell based assay measuring cyclic adenosine monophosphate (cAMP) levels in cells using Homogeneous Time-Resolved Fluorescence (HTRF) cAMP detection kit (CisBio catalog #62AM4PEC, cAMP Gs Dynamic range kit). The cAMP detection method is based on a competitive immunoassay, in which cAMP produced by the cells and cAMP labeled with the dye d2 compete for binding to a Europium-Cryptate-labeled anti-cAMP antibody. The specific HTRF signal is inversely proportional to the concentration of cAMP.
Compounds were added to individual well in 384 well-assay plates (Greiner #784076) using an Echo (LabCyte) dispenser from 10 mM stocks. Varying concentration of compounds were added to wells, and DMSO was used to normalize each well to a volume of 100 nL. A dose response curve of GLP1(7-36)NH2 (Bachem H-6795) was included in each run. 5 μL of cAMP concentration response standards are applied in specified wells in the assay plates. Cryo-preserved cells are thawed and resuspended in assay buffer pre-heated to 37° C. (20 mM HEPES pH 7.4, lx Hank's Balanced Salt Solution (HBSS, Life Technologies #14065) supplemented with 0.1% (w/v) bovine serum albumin (Sigma, A-7030). Cells were centrifuged at 250*g for 5 min at rt, and resuspended in room tempered assay buffer to a final density of 0.16*10^6 cell/mL, to deliver 800 cells/well. 5 μL of assay buffer with 1 mM 3-isobutyl-1-methylxanthin (IBMX; Sigma cat I-7018) was dispensed per well in assay plates using a multidrop combi (Thermo Scientific) subsequently 5 μL of cell suspension was distributed to relevant wells in the assay using a multidrop dispenser. Assay plates were incubated 20 min at rt.
Detection reagents, Europium-Cryptate-labeled anti-cAMP antibody and cAMP labeled with the dye d2, are diluted in lysis buffer, provided by the manufacturer. 5 μL of each detection reagent is supplemented to each assay well using a multidrop dispenser. Assay plates are incubated in the dark for at least one h. The HTRF signal is measured using the HTRF module (excitation: 337 nm, emission A: 665 nm and emission B: 620 nm) in Pherastar FSX (BMG Labtech).
Raw data were converted to pM cAMP using the cAMP standard curve included in each run. Converted data were further analyzed in Genedata Screener (Genedata) and EC50 determinations were made from agonist dose-response curves analyzed with a curve fitting program using a 4-parameter logistic dose response equation (Equation y=A+((B−A)/1+((C/x)^D))) where A is no stimulation, B is full stimulation, C is the EC50 and D is the Hill slope). The percent effect was determined relative to a saturating concentration of a full GLP-1R agonist (GLP1(7-36)NH2 has 100% effect in this assay setup).

[1] = target: GLP-1R in EndoC-βH1 cells (Homo sapiens (Human), UniProt P43220); test: EndoC cAMP Accumulation Assay; assay type: cell-based; settings: EndoC-βH1 human pancreatic beta cell line; HTRF cAMP accumulation
Text: EndoC cAMP Accumulation Assay
A HTRF cAMP assay (cAMP Gs dynamic kit; CisoBio Cat #62AM4PEJ) was used to identify agonists of GLP-1R in a pancreatic insulinoma cell line (EndoC-βH1). […] EndoC-βH1 cells have detectable GLP-1R messenger ribonucleic acid (mRNA) as detected by quantitative polymerase chain reaction (qPCR). […] The EndoC-βH1 cell line is a valid model of human beta cells and applicable for screenings to identify novel drug target candidates (Mol. Metab., 2018, 8, 144-157). CisBio HTRF cAMP kits are based on a competitive immunoassay using cryptate-labelled anti-cAMP antibody and d2-labeled cAMP. The detection kit is intended for the direct quantitative determination of cAMP. The specific signal (i.e. energy transfer) is inversely proportional to the concentration of cAMP in the standard or sample. Test compounds (10 mM in DMSO) were diluted into assay buffer (HBSS (Sigma #H8264) supplemented with 25 mM HEPES (Gibco #15630, pH 7.4), 0.1% BSA (Sigma #A3059) and 0.5 mM IBMX (Sigma #17018) included fresh on the day of the assay) into 96 well U-bottom plates (Greiner #650201). Diluted compounds were transferred to ECHO source polypropylene plates (Labcyte #P-05525) and dose response curves were dispensed acoustically using ECHO 550 into black shallow-well u-bottom 384-well HTRF Assay Plates (Corning 4514).
Cryovials of EndoC-H1 (supplied at 1×10e^7 cells/vial) were used directly for screening. The cryovials and were removed from N2 (1) and thawed rapidly in a 37° C. water bath. The cells were resuspended in assay buffer and centrifuged at 300 g for 5 min. Cells were resuspended in assay buffer at the appropriate concentration, typically at 12e5 cells per mL (3000 cells per well, dependent on cell batch) and 2.5 μL diluted cells were added to all wells of destination plate by Multidrop combi reagent dispenser (Thermofisher). The plates were incubated at rt for 30 min. The assay was stopped by adding 2.5 μL anti-cAMP cryptate solution to all wells and 2.5 μL cAMP-d2 solution (both diluted 1:20 in lysis buffer) to columns 1-22 by Combi drop. A volume of 2.5 μL cAMP-d2 solution was added to wells E23 to P24 and 2.5 μL lysis buffer added to wells A23 to D24 by multichannel pipette. The plates were incubated at rt for 1 h and read on an Envision plate reader using excitation wavelength of 320 nm and emission of […] and 660 nm.
Raw data from Envision is converted to % DeltaF according to the manufacturer's instructions. Dose response curves are analysed via 4-Parameter Logistical Analysis and assay plate Z′ values obtained. Samples are graphed as percentage (%) activation plots compared to GIP (1-42, Bachem H-5645) with assay window defined by negative control as basal cell cAMP levels and positive control are defined by maximum GIP (82.5 nM) signal. GLP1 (7-36 amide, Bachem H-6795) dose response curve was included on all plates.

[2] = target: human phosphodiesterase-3A (Homo sapiens (Human), UniProt Q14432); test: PDE3 Assay; assay type: biochemical; settings: human recombinant enzyme expressed in Sf9 cells; formation of 5'AMP from cAMP
Procedure: Evaluation of the effects of compounds on the activity of the human phosphodiesterase-3A is quantified by measuring the formation of 5′AMP from cAMP using a human recombinant enzyme expressed in a clonal isolate of Spodoptera frugiperda cells (Sf9) cells.
The test compound, reference compound or water (control) are added to a buffer containing 40 mM tris(hydroxymethyl)aminomethane (Tris)/HCl (pH 7.4) and 8 mM MgCl2, 450 nMcAMP and 0.25 μCi [^3H]cAMP.
Thereafter, the reaction is initiated by addition of the enzyme (about 1 U) and the mixture is incubated for 20 min at 22° C.
For basal control measurements, the enzyme is omitted from the reaction mixture. Following incubation SPA beads are added. After 30 min at 22° C. under shaking, the amount of [^3H]^+ 5′AMP is quantified with a scintillation counter (Topcount, Packard).
The results are expressed as a percent inhibition of the control enzyme activity. The standard inhibitory reference compound is milrinone (CAS number 78415-72-2), which is tested in each experiment at several concentrations to obtain an inhibition curve from which its IC50 value is calculated.

Sequence of human GLP-1R receptor (P43220 24-463 L260F): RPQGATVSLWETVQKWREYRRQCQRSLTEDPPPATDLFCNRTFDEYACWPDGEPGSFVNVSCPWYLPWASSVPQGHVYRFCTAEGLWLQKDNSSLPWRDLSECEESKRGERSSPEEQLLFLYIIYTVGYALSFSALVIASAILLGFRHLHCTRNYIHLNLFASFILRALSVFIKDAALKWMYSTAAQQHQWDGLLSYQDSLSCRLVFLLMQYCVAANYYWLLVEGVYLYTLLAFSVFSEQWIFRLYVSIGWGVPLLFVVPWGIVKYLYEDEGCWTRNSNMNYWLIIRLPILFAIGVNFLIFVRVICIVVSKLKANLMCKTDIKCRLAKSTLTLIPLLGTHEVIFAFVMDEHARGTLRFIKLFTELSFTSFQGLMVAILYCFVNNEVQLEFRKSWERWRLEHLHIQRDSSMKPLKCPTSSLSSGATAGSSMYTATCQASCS
Sequence of human phosphodiesterase-3A (Q14432 whole entry): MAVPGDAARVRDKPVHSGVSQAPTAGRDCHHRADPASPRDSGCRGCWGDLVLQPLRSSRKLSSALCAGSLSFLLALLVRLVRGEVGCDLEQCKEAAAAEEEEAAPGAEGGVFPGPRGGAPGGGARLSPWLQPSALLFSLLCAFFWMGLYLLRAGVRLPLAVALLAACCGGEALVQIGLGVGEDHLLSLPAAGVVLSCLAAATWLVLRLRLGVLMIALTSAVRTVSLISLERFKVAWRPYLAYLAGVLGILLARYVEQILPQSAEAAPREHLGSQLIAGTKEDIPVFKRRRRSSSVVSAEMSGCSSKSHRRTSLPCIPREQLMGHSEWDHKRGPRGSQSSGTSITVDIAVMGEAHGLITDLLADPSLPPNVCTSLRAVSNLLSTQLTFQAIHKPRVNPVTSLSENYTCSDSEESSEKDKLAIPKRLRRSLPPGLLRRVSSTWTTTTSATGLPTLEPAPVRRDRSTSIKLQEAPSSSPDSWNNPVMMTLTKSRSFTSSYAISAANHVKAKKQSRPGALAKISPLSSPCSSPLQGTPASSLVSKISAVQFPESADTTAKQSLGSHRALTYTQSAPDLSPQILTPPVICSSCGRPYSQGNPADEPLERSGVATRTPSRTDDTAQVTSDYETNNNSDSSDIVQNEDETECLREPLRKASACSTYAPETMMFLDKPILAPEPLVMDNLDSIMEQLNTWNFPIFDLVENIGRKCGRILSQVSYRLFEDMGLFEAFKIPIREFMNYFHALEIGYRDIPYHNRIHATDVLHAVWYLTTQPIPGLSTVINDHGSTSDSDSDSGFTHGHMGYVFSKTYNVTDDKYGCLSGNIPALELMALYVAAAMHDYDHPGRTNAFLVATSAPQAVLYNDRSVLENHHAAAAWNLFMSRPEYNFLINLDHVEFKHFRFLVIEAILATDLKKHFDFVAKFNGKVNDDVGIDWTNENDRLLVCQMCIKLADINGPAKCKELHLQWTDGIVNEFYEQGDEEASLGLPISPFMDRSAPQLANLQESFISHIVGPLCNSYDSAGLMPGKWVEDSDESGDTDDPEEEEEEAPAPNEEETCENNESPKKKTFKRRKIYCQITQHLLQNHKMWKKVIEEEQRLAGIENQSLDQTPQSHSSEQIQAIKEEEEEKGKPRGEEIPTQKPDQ
Sequence of GLP-1R in EndoC-βH1 cells (P43220 24-463): as the sequence (P43220 24-463 L260F) above, with F237L counted along it

| Compound | EC50 (human GLP-1R receptor) [nM] | EC50 [1] [nM] | IC50 [2] [nM] |
| --- | --- | --- | --- |
| CCn1cncc1Cn1c(CN2C[C@@H]3[C@H](C2)[C@H]3c2nc(OCc3ccc(Cl)cc3F)ccc2F)nc2c(OC)cc(C(=O)O)cc21 [Example 17, 2-(((1R,5S,6r)-6-(6-((4-Chloro-2-fluorobenzyl)oxy)-3-fluoropyridin-2-yl)-3-azabicyclo[3.1.0]hexan-3-yl)methyl)-1-((1-ethyl-1H-imidazol-5-yl)methyl)-4-methoxy-1H-benzo[d]imidazole-6-carboxylic acid] | 15 | 9.3 | > 100000 |
| O=C(O)c1ccc2nc(CN3C[C@@H]4[C@H](C3)[C@H]4c3cccc(OCc4ccc(Cl)cc4F)n3)n(C[C@@H]3CCO3)c2c1 [Example 13, 2-(((1R,5S,6S)-6-(6-((4-Chloro-2-fluorobenzyl)oxy)pyridin-2-yl)-3-azabicyclo[3.1.0]hexan-3-yl)methyl)-1-(((S)-oxetan-2-yl)methyl)-1H-benzo[d]imidazole-6-carboxylic acid] | 100 | 23 | > 100000 |
| COc1cc(C(=O)O)cc2c1nc(CN1C[C@@H]3[C@H](C1)[C@H]3c1nc(OCc3ccc(Cl)cc3F)ccc1C)n2C[C@@H]1CCO1 [Example 19, 2-(((1R,5S,6S)-6-(6-((4-Chloro-2-fluorobenzyl)oxy)-3-methylpyridin-2-yl)-3-azabicyclo[3.1.0]hexan-3-yl)methyl)-4-methoxy-1-(((S)-oxetan-2-yl)methyl)-1H-benzo[d]imidazole-6-carboxylic acid] | 19 | 9.6 | > 100000 |
